Measured values as given in PMC8342319, “Predicting blood-to-plasma concentration ratios of drugs from chemical structures and volumes of distribution in humans” (Molecular Diversity, 2021).
Like-named read-outs stand apart in the source and are kept apart here.

Columns and labels:
[1] = tested on: plasma protein; test: Measurement of PPB by equilibrium dialysis in pooled human plasma (free fraction); settings: for fp_Human: footnote b: fu is our experimental data; for fraction unbound at 5 h, 5 µM: human
Method: (§1) Pooled human plasma was obtained from heparinized blood from nine to ten healthy volunteers not medicated for at least seven days. The human blood collection and PPB experimental protocols were approved by the Ethical Review Committee of Japan Tobacco Inc, Central Pharmaceutical Research Institute. Informed consent was obtained from all subjects, and the PPB experiments were conducted in accordance with the Ethical Guidelines for Medical and Health Research Involving Human Subjects. Binding of compounds to plasma protein was evaluated by equilibrium dialysis utilizing a 96-well equilibrium dialysis unit and HTD96b dialysis membrane strips with a molecular cutoff of 12–14 kDa (HTDialysis, Gales Ferry, CT, USA). Plasma containing the compounds (final concentration of 5 µM) and buffer (Dulbecco’s phosphate-buffered saline; Thermo Fisher Scientific, Waltham, MA) were added into the donor and receiver cells, respectively. Following dialysis for 5 h at 37 °C, the concentrations of the compounds in the plasma and buffer were determined by liquid chromatography–tandem mass spectrometry (LC–MS/MS) (Acquity™ Ultra Performance LC I-Class and Xevo TQ-S; Waters, Milford, MA). The percentage of free fraction (fu) was calculated according to the following equation [17]:1 Freefraction(fu,%)=Concentrationofbuffer/Concentrationofplasma×100

[2] = human, cited from earlier work
[3] = human
[4] = Measurement of Rb (blood-to-plasma concentration ratio) in spiked human blood, LC-MS/MS; assay type: in vitro ADME; settings: footnote a: Rb is our experimental data; for blood plasma ratio at 30 min, 5 µM: read-out: Rb_Human (blood-to-plasma concentration ratio); for Rb_Human: blood-to-plasma concentration ratio
Method: Heparinized blood was collected from three to seven healthy volunteers not medicated for at least seven days. […] The blood was spiked with the compounds (final concentration of 5 µM) and incubated at 37 °C for 30 min. Following incubation, the samples were centrifuged at 5000 rpm for 5 min to obtain plasma. Subsequently, the concentrations of the compounds in the plasma were determined by LC–MS/MS using the same method as described for the measurement of PPB. Rb was calculated according to Eq. (2).

[5] = cited from earlier work
[6] = tested on: plasma protein; test: in vitro; settings: human
Method: as §1

[7] = human; median if multiple values were reported; ref numbers in Table S1; cited from earlier work
[8] = intravenous, median if multiple values were reported, ref numbers in Table S1
[9] = human, intravenous, median if multiple values were reported, ref numbers in Table S1
[10] = intravenous, median if multiple values reported, Reference of Table S1
[11] = human, intravenous, median if multiple values reported, Reference of Table S1

CN(C)CCCC1(c2ccc(F)cc2)OCc2cc(C#N)ccc21 (stereo not shown) [Citalopram]
fp_Human ([1]; human plasma free fraction): 0.396
fraction unbound at 5 h, 5 µM ([1]; pooled human plasma): 0.396
in vivo Vd_(L/kg)_Human [2, 8]: 13.000 L/kg
in vivo MRT_(hr)_Human [3]: 50.388 h
blood plasma ratio at 30 min, 5 µM ([4]; heparinized human whole blood): 1.39
in vivo CL_(L/hr/kg)_Human [5, 9]: 0.258 L/h/kg

O=P1(N(CCCl)CCCl)NCCCO1 (stereo not shown) [Cyclophosphamide]
fp_Human ([1]; human plasma free fraction): 0.928
fraction unbound at 5 h, 5 µM ([1]; plasma): 0.928
in vivo Vd_(L/kg)_Human ([2]; in vivo, iv): 0.715 L/kg
in vivo MRT_(hr)_Human [3]: 10.833 h
blood plasma ratio at 30 min, 5 µM ([4]; plasma): 0.92
in vivo CL_(L/hr/kg)_Human ([5]; in vivo, iv): 0.078 L/h/kg

O=C(O)Cc1ccccc1Nc1c(Cl)cccc1Cl [Diclofenac]
fp_Human ([1]; human plasma free fraction): 0.00216
fraction unbound at 5 h, 5 µM ([1]; pooled human plasma): 0.00216
in vivo Vd_(L/kg)_Human [2, 8]: 0.220 L/kg
in vivo MRT_(hr)_Human [3]: 1.048 h
blood plasma ratio at 30 min, 5 µM ([4]; heparinized human whole blood): 0.6
in vivo CL_(L/hr/kg)_Human [5, 9]: 0.210 L/h/kg

CC(C)N(CCC(C(N)=O)(c1ccccc1)c1ccccn1)C(C)C (stereo not shown) [Disopyramide]
fp_Human ([1]; human plasma free fraction): 0.204
fraction unbound at 5 h, 5 µM ([1]; pooled human plasma): 0.204
in vivo Vd_(L/kg)_Human [2, 8]: 0.650 L/kg
in vivo MRT_(hr)_Human [3]: 12.037 h
blood plasma ratio at 30 min, 5 µM ([4]; heparinized human whole blood): 0.81
in vivo CL_(L/hr/kg)_Human [5, 9]: 0.099 L/h/kg

NC(N)=Nc1nc(CSCCC(N)=NS(N)(=O)=O)cs1 [Famotidine]
fp_Human ([1]; human plasma free fraction): 1.000
fraction unbound at 5 h, 5 µM ([1]; pooled human plasma): 1
in vivo Vd_(L/kg)_Human [2, 8]: 1.200 L/kg
in vivo MRT_(hr)_Human [3]: 3.030 h
blood plasma ratio at 30 min, 5 µM ([4]; heparinized human whole blood): 0.74
in vivo CL_(L/hr/kg)_Human [5, 9]: 0.396 L/h/kg

NCC1(CC(=O)O)CCCCC1 [Gabapentin]
fp_Human ([1]; human plasma free fraction): 1.000
fraction unbound [6]: 1
in vivo Vd_(L/kg)_Human ([2]; in vivo, iv): 0.765 L/kg
in vivo MRT_(hr)_Human [3]: 7.500 h
Rb_Human (blood-to-plasma concentration ratio) [7]: 1.10
in vivo CL_(L/hr/kg)_Human [5, 9]: 0.102 L/h/kg

C[C@H]1NCc2cc(-c3ccc4c(=O)c(C(=O)O)cn(C5CC5)c4c3OC(F)F)ccc21 [Garenoxacin]
fp_Human ([1]; human plasma free fraction): 0.236
fraction unbound at 5 h, 5 µM ([1]; pooled human plasma): 0.236
in vivo Vd_(L/kg)_Human [2, 8]: 1.000 L/kg
in vivo MRT_(hr)_Human [3]: 13.550 h
blood plasma ratio at 30 min, 5 µM ([4]; heparinized human whole blood): 0.72
in vivo CL_(L/hr/kg)_Human [5, 9]: 0.074 L/h/kg

COc1ccc2c(c1)c(CC(=O)O)c(C)n2C(=O)c1ccc(Cl)cc1 [Indomethacin]
fp_Human ([1]; human plasma free fraction): 0.00361
fraction unbound at 5 h, 5 µM ([1]; pooled human plasma): 0.00361
in vivo Vd_(L/kg)_Human [2, 8]: 0.595 L/kg
in vivo MRT_(hr)_Human [3]: 4.958 h
blood plasma ratio at 30 min, 5 µM ([4]; heparinized human whole blood): 0.59
in vivo CL_(L/hr/kg)_Human [5, 9]: 0.095 L/h/kg

CC1CCCC(C)N1CCCC(O)(c1ccccc1)c1ccccn1 (stereo not shown) [Pirmenol]
fp_Human ([1]; free fraction in human plasma): 0.339
in vivo Vd_(L/kg)_Human [2, 10]: 1.350 L/kg
in vivo MRT_(hr)_Human [3]: 12.500 h
Rb_Human [4]: 0.86
in vivo CL_(L/hr/kg)_Human [5, 11]: 0.108 L/h/kg

CC(C)NCC(O)COc1cccc2ccccc12 (stereo not shown) [Propranolol]
fp_Human ([1]; free fraction in human plasma): 0.098
in vivo Vd_(L/kg)_Human [2, 10]: 3.350 L/kg
in vivo MRT_(hr)_Human [3]: 4.653 h
Rb_Human [4]: 1.08
in vivo CL_(L/hr/kg)_Human [5, 11]: 0.720 L/h/kg
